Assay results reported in patent publication US9868719B2, “Compounds with pesticidal activity” (BAYER CROPSCIENCE AKTIENGESELLSCHAFT, priority 2013, dated 2018).
Read-outs that look alike come from different tables or passages of the source.

Experiments:
[1] = test system: Nippostrongylus brasiliensis; experiment: Nippostrongylus brasiliensis-Test (NIPOBR), in vitro efficacy, acetylcholine esterase readout; settings: 10 μg/ml, read-out: activity (reduction of AChe compared to negative control)
Description: Nippostrongylus brasiliensis-Test (NIPOBR) (In Vitro Efficacy Test)
Adult Nippostrongylus brasiliensis were washed with saline buffer containing 100 U/ml penicillin, 0.1 mg/ml streptomycin and 2.5 μg/ml amphotericin B. Test compounds were dissolved in DMSO, and worms were incubated in medium in a final concentration of 10 μg/ml. An aliquot of the medium was used to determine the acetylcholine esterase activity in comparison to a negative control. The principle of measuring acetylcholine esterase as readout for anthelmintic activity was described in Rapson et al (1986) and Rapson et al (1987).

Cooperia curticei = experiment: microbe, parasite or virus in culture; settings: 120 h, read-out: activity (larval mortality)
Description: Cooperia curticei-Test (COOPCU)
(§1) Solvent: dimethyl sulfoxide
(§2) To produce a suitable preparation of active compound, 10 mg of active compound are dissolved in 0.5 ml solvent, and the concentrate is diluted with “Ringer's solution” to the desired concentration.
Approximately 40 nematode larvae (Cooperia curticei) are transferred into a test tube containing the compound solution.
After 5 days percentage of larval mortality is recorded, 100% efficacy means all larvae are killed; 0% efficacy means no larvae are killed.

Haemonchus contortus = experiment: Haemonchus contortus-Test (HAEMCO), larval mortality; settings: 120 h, read-out: activity (larval mortality)
Description: Haemonchus contortus-Test (HAEMCO)
as §1, §2
Approximately 40 larvae of the red stomach worm (Haemonchus contortus) are transferred into a test tube containing compound solution.
After 5 days percentage of larval mortality are recorded, 100% efficacy means all larvae are killed, 0% efficacy means no larvae are killed.

Meloidogyne incognita = experiment: Meloidogyne incognita-Test, gall formation on salad seedlings; format: in vivo; settings: 336 h, read-out: nematicidal activity (on the basis of gall formation)
Description: Meloidogyne incognita-Test
Solvent: 125.0 parts by weight of acetone
To produce a suitable preparation of active compound, 1 part by weight of active compound is mixed with the stated amount of solvent, and the concentrate is diluted with water to the desired concentration.
Vessels are filled with sand, a solution of the active ingredient, a suspension containing eggs and larvae of the southern root-knot nematode (Meloidogyne incognita) and salad seeds. The salad seeds germinate and the seedlings grow. Galls develop in the roots.
After 14 days the nematicidal activity is determined on the basis of the percentage of gall formation. 100% means no galls were found and 0% means the number of galls found on the roots of the treated plants was equal to that in untreated control plants.

logP = settings: for chromatographic logP: HCOOH (formic acid)

| Structure (SMILES) | mortality at 20 ppm (Cooperia curticei) | mortality at 20 ppm (Haemonchus contortus) | chromatographic logP (logP) | further results |
| --- | --- | --- | --- | --- |
| O=C(NCC(F)(F)c1ncc(-n2cc(C(F)(F)F)cn2)cc1Cl)c1ccccc1C(F)(F)F [Example 28] | 100% | 100% |  | inhibition at 10 µg/mL [1]: ≥ 60%; pest or weed control at 20 ppm (Meloidogyne incognita): 1% |
| O=C(NCCc1ncc(-n2ccc(C(F)(F)F)n2)cc1Cl)c1ccccc1C(F)(F)F [Example 3] | 100% | 100% |  | inhibition at 10 µg/mL [1]: ≥ 60%; pest or weed control at 20 ppm (Meloidogyne incognita): 1%; chromatographic logP (physchem): 3.68 |
| O=C(NCC(F)(F)c1ncc(-c2ccoc2)cc1Cl)c1ccccc1C(F)(F)F [Example 8] | 100% |  |  |  |
| O=C(NCC(F)(F)c1ncc(-c2ccnc(F)c2)cc1Cl)c1ccccc1C(F)(F)F [Example 23] | 100% | 100% | 2.96 | pest or weed control at 20 ppm (Meloidogyne incognita; 20 ppm, after 14 days): 1% |
| CC(F)(CNC(=O)c1ccccc1C(F)(F)F)c1ncc(-c2ccc(Cl)nc2)cc1Cl (centres unmarked) [Example 33] |  |  | 3.26 |  |
| O=C(NCC(F)(F)c1ncc(-c2cncc(F)c2)cc1Cl)c1ccccc1C(F)(F)F [Example 10] | 100% | 100% |  | inhibition at 10 µg/mL [1]: ≥ 60%; pest or weed control at 20 ppm (Meloidogyne incognita): 1%; chromatographic logP (physchem): 2.84 |
| O=C(NCC(F)(F)c1ncc(-c2cncc(Cl)c2)cc1Cl)c1ccccc1C(F)(F)F [Example 15] | 100% | 100% |  | inhibition at 10 µg/mL [1]: ≥ 60%; pest or weed control at 20 ppm (Meloidogyne incognita): 90%; chromatographic logP (physchem): 3.17 |
| Cc1ccc(-c2cnc(C(C)(F)CNC(=O)c3cccnc3C(F)(F)F)c(Cl)c2)cn1 (centres unmarked) [Example 38] |  |  | 1.69 |  |
| Cc1ncccc1-c1cnc(C(F)(F)CNC(=O)c2ccccc2C(F)(F)F)c(Cl)c1 [Example 13] |  |  | 1.86 | mortality at 20 ppm (Cooperia curticei; 20 ppm, after 5 days): 90%; pest or weed control at 20 ppm (Meloidogyne incognita; 20 ppm, after 14 days): 90% |
| O=C(NCC(F)(F)c1ncc(-c2cc(Cl)nc(Cl)c2)cc1Cl)c1ccccc1C(F)(F)F [Example 25] | 100% | 100% |  | inhibition at 10 µg/mL [1]: ≥ 60%; pest or weed control at 20 ppm (Meloidogyne incognita): 1%; chromatographic logP (physchem): 3.84 |
| O=C(NCCc1ncc(-n2cncn2)cc1Cl)c1ccccc1C(F)(F)F [Example 5] |  | 90% | 2.06 | pest or weed control at 20 ppm (Meloidogyne incognita; 20 ppm, after 14 days): 1% |
| O=C(NCC(F)(F)c1ncc(-c2ccc(Cl)nc2Cl)cc1Cl)c1ccccc1C(F)(F)F [Example 18] | 100% | 80% | 3.68 | pest or weed control at 20 ppm (Meloidogyne incognita; 20 ppm, after 14 days): 1% |
| O=C(NCC(F)(F)c1ncc(-c2cccnc2)cc1Cl)c1ccccc1C(F)(F)F [Example 19] | 100% | 100% |  | inhibition at 10 µg/mL [1]: ≥ 60%; chromatographic logP (physchem): 2.27 |
| O=C(NCC(F)(F)c1ncc(-c2ccc(F)cn2)cc1Cl)c1nccnc1C(F)(F)F [Example 30] |  |  | 2.75 |  |
| O=C(NCC(F)(F)c1ncc(-c2ccc(F)cn2)cc1Cl)c1cccnc1C(F)(F)F [Example 29] |  |  | 2.57 | pest or weed control at 20 ppm (Meloidogyne incognita; 20 ppm, after 14 days): 1% |
| O=C(NCCc1ncc(-c2ccc(C(F)(F)F)nc2)cc1Cl)c1ccccc1C(F)(F)F [Example 7, N-{2-[5-chloro-6′-(trifluoromethyl)-3,3′-bipyridin-6-yl]ethyl}-2-(trifluoromethyl) benzamide] | 100% | 90% | 3.29 | pest or weed control at 20 ppm (Meloidogyne incognita; 20 ppm, after 14 days): 90% |
| CC(F)(CNC(=O)c1ccccc1C(F)(F)F)c1ncc(-c2cncc(F)c2)cc1Cl (centres unmarked) [Example 39] |  |  | 2.99 |  |
| O=C(NCC(F)(F)c1ncc(-c2cc(F)c(F)cn2)cc1Cl)c1ccccc1C(F)(F)F [Example 41] |  |  | 3.28 |  |
| O=C(NCC(F)(F)c1ncc(-c2ccncc2)cc1Cl)c1ccccc1C(F)(F)F [Example 22] | 100% | 90% | 2 |  |
| O=C(NCC(F)(F)c1ncc(-c2cnccc2Cl)cc1Cl)c1ccccc1C(F)(F)F [Example 21] | 80% |  | 2.88 |  |

| Structure (SMILES) | mortality at 20 ppm (Cooperia curticei) | mortality at 20 ppm (Haemonchus contortus) | chromatographic logP (logP) | further results |
| --- | --- | --- | --- | --- |
| O=C(NCC(F)(F)c1ncc(-c2ccc(C(F)(F)F)nc2)cc1Cl)c1ccccc1C(F)(F)F [Example 11, N-{2-[5-chloro-6′-(trifluoromethyl)-3,3′-bipyridin-6-yl]-2,2-difluoroethyl}-2-(trifluoromethyl) benzamide] | 100% | 90% | 3.42 |  |
| O=C(NCC(F)(F)c1ncc(-c2ccc(F)nc2)cc1Cl)c1ccccc1C(F)(F)F [Example 16] | 100% | 100% |  | inhibition at 10 µg/mL [1]: ≥ 60%; pest or weed control at 20 ppm (Meloidogyne incognita): 1%; chromatographic logP (physchem): 3.02 |
| Cc1occc1-c1cnc(C(F)(F)CNC(=O)c2ccccc2C(F)(F)F)c(Cl)c1 [Example 9] | 100% | 90% |  |  |
| O=C(NCC(F)(F)c1ncc(-c2ccc(Cl)nc2)cc1Cl)c1ccccc1C(F)(F)F [Example 12] | 100% | 90% | 3.21 | pest or weed control at 20 ppm (Meloidogyne incognita; 20 ppm, after 14 days): 90% |
| CC(F)(CNC(=O)c1ccccc1C(F)(F)F)c1ncc(-c2ccc(C(F)(F)F)nc2)cc1Cl (centres unmarked) [Example 35] |  |  |  | logP (logP): 3.55 |
| CC(F)(CNC(=O)c1cccnc1C(F)(F)F)c1ncc(-c2cncc(F)c2)cc1Cl (centres unmarked) [Example 40] |  |  | 2.49 |  |
| O=C(NCCc1ncc(-n2ccnc2)cc1Cl)c1ccccc1C(F)(F)F [Example 1] |  |  | 1.21 | mortality at 20 ppm (Cooperia curticei; 20 ppm, after 5 days): 100%; mortality at 20 ppm (Haemonchus contortus; 20 ppm, after 5 days): 80% |
| O=C(NCC(F)(F)c1ncc(-c2ccnc(Cl)c2)cc1Cl)c1ccccc1C(F)(F)F [Example 24] | 100% | 100% | 3.17 | pest or weed control at 20 ppm (Meloidogyne incognita; 20 ppm, after 14 days): 1% |
| Cc1ccc(-c2cnc(C(C)(F)CNC(=O)c3ccccc3C(F)(F)F)c(Cl)c2)cn1 (centres unmarked) [Example 37] |  |  | 3.79 |  |
| CC(F)(CNC(=O)c1ccccc1C(F)(F)F)c1ncc(-c2ccc(F)nc2)cc1Cl (centres unmarked) [Example 31] |  |  | 3.94 |  |
| CC(F)(CNC(=O)c1cccnc1C(F)(F)F)c1ncc(-c2ccc(C(F)(F)F)nc2)cc1Cl (centres unmarked) [Example 36] |  |  | 3.17 |  |
| O=C(NCCc1ncc(-n2cc(C(F)(F)F)cn2)cc1Cl)c1ccccc1C(F)(F)F [Example 2] | 100% | 100% |  | inhibition at 10 µg/mL [1]: ≥ 60%; pest or weed control at 20 ppm (Meloidogyne incognita): 1%; chromatographic logP (physchem): 3.65 |
| O=C(NCCc1ncc(-c2ccc(Cl)nc2)cc1Cl)c1ccccc1C(F)(F)F [Example 6] | 100% | 100% | 3 | pest or weed control at 20 ppm (Meloidogyne incognita; 20 ppm, after 14 days): 1% |
| CC(F)(CNC(=O)c1cccnc1C(F)(F)F)c1ncc(-c2ccc(F)nc2)cc1Cl (centres unmarked) [Example 32] |  |  | 2.66 |  |
| O=C(NCCc1ncc(-n2cccn2)cc1Cl)c1ccccc1C(F)(F)F [Example 4, N-{2-[3-chloro-5-(1H-pyrazol-1-yl)pyridin-2-yl]ethyl}-2-(trifluoromethyl)benzamide] | 100% | 100% |  | inhibition at 10 µg/mL [1]: ≥ 60%; pest or weed control at 20 ppm (Meloidogyne incognita): 1%; chromatographic logP (physchem): 2.69 |
| O=C(NCC(F)(F)c1ncc(-c2ccc(OCC(F)(F)F)nc2)cc1Cl)c1ccccc1C(F)(F)F [Example 20] | 100% | 100% | 3.94 | pest or weed control at 20 ppm (Meloidogyne incognita; 20 ppm, after 14 days): 90% |
| CN(C)c1ccc(-c2cnc(C(F)(F)CNC(=O)c3ccccc3C(F)(F)F)c(Cl)c2)cn1 [Example 42] |  |  | 1.97 |  |
| O=C(NCC(F)(F)c1ncc(-c2cccnc2Cl)cc1Cl)c1ccccc1C(F)(F)F [Example 14] | 100% | 100% |  | inhibition at 10 µg/mL [1]: ≥ 60%; pest or weed control at 20 ppm (Meloidogyne incognita): 1%; chromatographic logP (physchem): 3 |
| CC(C)Oc1ccc(-c2cnc(C(F)(F)CNC(=O)c3ccccc3C(F)(F)F)c(Cl)c2)cn1 [Example 17] | 100% | 90% | 4.15 |  |
